Reference: PubChem BioAssay AID1745844 (Carcinogenic Potency Database (CPDB), 2022)
Activity calls are given as the source filed them. No rule for the calls is given here.

Test system: rodent lifetime carcinogenesis bioassay, tumor incidence TD50
Test: chronic cancer bioassays in animals – CPDB, compiled studies (AID 1745844)

Structure (SMILES): O=[N+]([O-])OCC(CO[N+](=O)[O-])O[N+](=O)[O-]
- TD50 (rat, strain Charles River CD (Sprague-Dawley), females, in feed, site: liver, lesion: several types, types named in the paper, dosed 104 weeks, study length 104 weeks): 329 mg/kg/day
- TD50 (rat, strain Charles River CD (Sprague-Dawley), males, in feed, site: liver, lesion: several types, types named in the paper, dosed 104 weeks, study length 104 weeks): 221 mg/kg/day
- TD50 (rat, strain Charles River CD (Sprague-Dawley), males, in feed, site: testis, lesion: interstitial-cell tumor, dosed 104 weeks, study length 104 weeks): 405 mg/kg/day
- TD50 (rat, strain Fischer 344, males, in feed, site: liver, lesion: cholangiocarcinoma, dosed 70 weeks, study length 70 weeks): 681 mg/kg/day
- TD50 (rat, strain Fischer 344, males, in feed, site: liver, lesion: cholangiocarcinoma, dosed 76 weeks, study length 76 weeks): 509 mg/kg/day
- TD50 (rat, strain Fischer 344, males, in feed, site: liver, lesion: cholangioma, dosed 76 weeks, study length 76 weeks): 211 mg/kg/day
- TD50 (rat, strain Fischer 344, males, in feed, site: liver, lesion: hepatocellular adenoma, dosed 70 weeks, study length 70 weeks): 179 mg/kg/day
- TD50 (rat, strain Fischer 344, males, in feed, site: liver, lesion: hepatocellular adenoma, dosed 76 weeks, study length 76 weeks): 106 mg/kg/day
- TD50 (rat, strain Fischer 344, males, in feed, site: liver, lesion: several types, types named in the paper, dosed 70 weeks, study length 70 weeks): 113 mg/kg/day
- carcinogen call (rat, strain Fischer 344, males, in feed, site: liver, lesion: several types, types named in the paper, dosed 76 weeks, study length 76 weeks): positive

Structure (SMILES): CC(CN1c2ccccc2Sc2ccccc21)N(C)C (stereo not drawn)
- carcinogen call (mouse, strain B6C3F1, females, by gavage, site: any site (literature study), lesion: several types, types named in the paper, dosed 104 weeks, study length 105 weeks): negative (inactive)
- TD50 (mouse, strain B6C3F1, females, by gavage, site: liver, lesion: hepatocellular adenoma + hepatoblastoma + hepatocellular carcinoma, dosed 104 weeks, study length 105 weeks): 47.8 mg/kg/day
- TD50 (mouse, strain B6C3F1, males, by gavage, site: any site (literature study), lesion: several types, types named in the paper, dosed 103 weeks, study length 104 weeks): 393 mg/kg/day (inactive)
- TD50 (mouse, strain B6C3F1, males, by gavage, site: liver, lesion: hepatocellular adenoma + hepatoblastoma + hepatocellular carcinoma, dosed 103 weeks, study length 104 weeks): 157 mg/kg/day
- carcinogen call (rat, strain Fischer 344, females, by gavage, site: any site (literature study), lesion: several types, types named in the paper, dosed 103 weeks, study length 104 weeks): negative (inactive)
- TD50 (rat, strain Fischer 344, females, by gavage, site: liver, lesion: hepatocellular adenoma + hepatoblastoma + hepatocellular carcinoma, dosed 103 weeks, study length 104 weeks): 418 mg/kg/day
- TD50 (rat, strain Fischer 344, males, by gavage, site: any site (literature study), lesion: several types, types named in the paper, dosed 102 weeks, study length 102 weeks): 24.6 mg/kg/day
- TD50 (rat, strain Fischer 344, males, by gavage, site: testis, lesion: interstitial-cell adenoma, bilateral + interstitial-cell adenoma, dosed 102 weeks, study length 102 weeks): 10.3 mg/kg/day (inactive)

Structure (SMILES): Cc1c(COC(=O)[C@@H]2[C@H](/C=C(\Cl)C(F)(F)F)C2(C)C)cccc1-c1ccccc1
- TD50 (mouse, strain Swiss Webster, males, in feed, site: urinary bladder, lesion: mesenchymal neoplasm, dosed 86 weeks, study length 86 weeks): 286 mg/kg/day

Structure (SMILES): O=S(=O)(c1ccc(Cl)cc1)c1cc(Cl)c(Cl)cc1Cl
- TD50 (mouse, strain B6AKF1, females, oral dosing, site: any site (literature study), lesion: several types, types named in the paper, dosed 76 weeks, study length 76 weeks): 233 mg/kg/day (inactive)
- TD50 (mouse, strain B6AKF1, females, oral dosing, site: liver, lesion: hepatoma, dosed 76 weeks, study length 76 weeks): 233 mg/kg/day (inactive)
- carcinogen call (mouse, strain B6AKF1, females, oral dosing, site: lung, lesion: adenoma, dosed 76 weeks, study length 76 weeks): negative (inactive)
- carcinogen call (mouse, strain B6AKF1, males, oral dosing, site: any site (literature study), lesion: several types, types named in the paper, dosed 76 weeks, study length 76 weeks): negative (inactive)
- carcinogen call (mouse, strain B6AKF1, males, oral dosing, site: liver, lesion: hepatoma, dosed 76 weeks, study length 76 weeks): negative (inactive)
- carcinogen call (mouse, strain B6AKF1, males, oral dosing, site: lung, lesion: adenoma, dosed 76 weeks, study length 76 weeks): negative (inactive)
- TD50 (mouse, strain B6C3F1, females, oral dosing, site: any site (literature study), lesion: several types, types named in the paper, dosed 76 weeks, study length 76 weeks): 220 mg/kg/day (inactive)
- carcinogen call (mouse, strain B6C3F1, females, oral dosing, site: liver, lesion: hepatoma, dosed 76 weeks, study length 76 weeks): negative (inactive)
- carcinogen call (mouse, strain B6C3F1, females, oral dosing, site: lung, lesion: several types, types named in the paper, dosed 76 weeks, study length 76 weeks): negative (inactive)
- TD50 (mouse, strain B6C3F1, males, oral dosing, site: any site (literature study), lesion: several types, types named in the paper, dosed 76 weeks, study length 76 weeks): 35.6 mg/kg/day (inactive)
- TD50 (mouse, strain B6C3F1, males, oral dosing, site: liver, lesion: hepatoma, dosed 76 weeks, study length 76 weeks): 46.2 mg/kg/day (inactive)
- TD50 (mouse, strain B6C3F1, males, oral dosing, site: lung, lesion: adenoma, dosed 76 weeks, study length 76 weeks): 205 mg/kg/day (inactive)

Structure (SMILES): [O-]/[N+](=N\O)c1ccccc1
- TD50 (mouse, strain B6C3F1, females, in feed, site: Harderian gland, lesion: adenoma, NOS, dosed 78 weeks, study length 95 weeks): 1270 mg/kg/day
- TD50 (mouse, strain B6C3F1, females, in feed, site: Zymbal's gland, lesion: sebaceous adenocarcinoma + squamous-cell carcinoma, dosed 78 weeks, study length 95 weeks): 3930 mg/kg/day
- TD50 (mouse, strain B6C3F1, females, in feed, site: all sites + Harderian gland + liver + Zymbal's gland, lesion: hemangioma + hemangiosarcoma + adenoma, NOS + hepatocellular adenoma + hepatocellular carcinoma + sebaceous adenocarcinoma + squamou, dosed 78 weeks, study length 95 weeks): 253 mg/kg/day
- TD50 (mouse, strain B6C3F1, females, in feed, site: all sites, lesion: hemangioma + hemangiosarcoma, dosed 78 weeks, study length 95 weeks): 419 mg/kg/day
- TD50 (mouse, strain B6C3F1, females, in feed, site: all sites, lesion: hemangiosarcoma, dosed 78 weeks, study length 95 weeks): 1330 mg/kg/day
- TD50 (mouse, strain B6C3F1, females, in feed, site: any site (literature study), lesion: several types, types named in the paper, dosed 78 weeks, study length 95 weeks): 211 mg/kg/day
- TD50 (mouse, strain B6C3F1, females, in feed, site: liver, lesion: hepatocellular adenoma + hepatocellular carcinoma + neoplastic nodule, dosed 78 weeks, study length 95 weeks): 413 mg/kg/day
- TD50 (mouse, strain B6C3F1, females, in feed, site: liver, lesion: hepatocellular adenoma + hepatocellular carcinoma, dosed 78 weeks, study length 95 weeks): 413 mg/kg/day
- TD50 (mouse, strain B6C3F1, females, in feed, site: liver, lesion: hepatocellular carcinoma, dosed 78 weeks, study length 95 weeks): 564 mg/kg/day
- TD50 (mouse, strain B6C3F1, females, in feed, site: lung, lesion: alveolar/bronchiolar adenoma + alveolar/bronchiolar carcinoma, dosed 78 weeks, study length 95 weeks): 798 mg/kg/day
- TD50 (mouse, strain B6C3F1, males, in feed, site: Harderian gland, lesion: adenoma, NOS, dosed 78 weeks, study length 95 weeks): 1040 mg/kg/day
- TD50 (mouse, strain B6C3F1, males, in feed, site: all sites, lesion: hemangiosarcoma, dosed 78 weeks, study length 95 weeks): 1000 mg/kg/day
- TD50 (mouse, strain B6C3F1, males, in feed, site: any site (literature study), lesion: several types, types named in the paper, dosed 78 weeks, study length 95 weeks): 252 mg/kg/day
- TD50 (mouse, strain B6C3F1, males, in feed, site: liver, lesion: hepatocellular adenoma + hepatocellular carcinoma + neoplastic nodule, dosed 78 weeks, study length 95 weeks): 5450 mg/kg/day
- TD50 (mouse, strain B6C3F1, males, in feed, site: lung, lesion: alveolar/bronchiolar adenoma + alveolar/bronchiolar carcinoma, dosed 78 weeks, study length 95 weeks): 2390 mg/kg/day
- TD50 (rat, strain Fischer 344, females, in feed, site: Zymbal's gland, lesion: ceruminous carcinoma + squamous-cell carcinoma, dosed 78 weeks, study length 106 weeks): 171 mg/kg/day
- TD50 (rat, strain Fischer 344, females, in feed, site: all sites + liver + stomach + Zymbal's gland, lesion: hemangiosarcoma + hepatocellular carcinoma + neoplastic nodule + squamous-cell carcinoma + squamous-cell papilloma + ceruminous ca, dosed 78 weeks, study length 106 weeks): 14.1 mg/kg/day
- TD50 (rat, strain Fischer 344, females, in feed, site: all sites, lesion: hemangiosarcoma, dosed 78 weeks, study length 106 weeks): 17.4 mg/kg/day
- TD50 (rat, strain Fischer 344, females, in feed, site: any site (literature study), lesion: several types, types named in the paper, dosed 78 weeks, study length 106 weeks): 11.2 mg/kg/day
- TD50 (rat, strain Fischer 344, females, in feed, site: liver, lesion: hepatocellular adenoma + hepatocellular carcinoma + neoplastic nodule, dosed 78 weeks, study length 106 weeks): 17.7 mg/kg/day
- TD50 (rat, strain Fischer 344, females, in feed, site: liver, lesion: hepatocellular carcinoma + neoplastic nodule, dosed 78 weeks, study length 106 weeks): 17.7 mg/kg/day
- TD50 (rat, strain Fischer 344, females, in feed, site: liver, lesion: hepatocellular carcinoma, dosed 78 weeks, study length 106 weeks): 20.1 mg/kg/day
- TD50 (rat, strain Fischer 344, females, in feed, site: stomach, lesion: squamous-cell carcinoma + squamous-cell papilloma, dosed 78 weeks, study length 106 weeks): 27.8 mg/kg/day
- TD50 (rat, strain Fischer 344, females, in feed, site: stomach, lesion: squamous-cell carcinoma, dosed 78 weeks, study length 106 weeks): 31.3 mg/kg/day
- TD50 (rat, strain Fischer 344, males, in feed, site: all sites + liver + stomach, lesion: hemangiosarcoma + hepatocellular carcinoma + neoplastic nodule + squamous-cell carcinoma + squamous-cell papilloma, dosed 78 weeks, study length 105 weeks): 5.33 mg/kg/day
- TD50 (rat, strain Fischer 344, males, in feed, site: all sites, lesion: hemangiosarcoma, dosed 78 weeks, study length 105 weeks): 5.49 mg/kg/day
- TD50 (rat, strain Fischer 344, males, in feed, site: any site (literature study), lesion: several types, types named in the paper, dosed 78 weeks, study length 105 weeks): 8.85 mg/kg/day
- TD50 (rat, strain Fischer 344, males, in feed, site: body cavities, lesion: mesothelioma, NOS + mesothelioma, dosed 78 weeks, study length 105 weeks): 139 mg/kg/day
- TD50 (rat, strain Fischer 344, males, in feed, site: liver, lesion: hepatocellular adenoma + hepatocellular carcinoma + neoplastic nodule, dosed 78 weeks, study length 105 weeks): 9.28 mg/kg/day
- TD50 (rat, strain Fischer 344, males, in feed, site: liver, lesion: hepatocellular carcinoma + neoplastic nodule, dosed 78 weeks, study length 105 weeks): 9.28 mg/kg/day
- TD50 (rat, strain Fischer 344, males, in feed, site: liver, lesion: hepatocellular carcinoma, dosed 78 weeks, study length 105 weeks): 30.7 mg/kg/day
- TD50 (rat, strain Fischer 344, males, in feed, site: stomach, lesion: squamous-cell carcinoma + squamous-cell papilloma, dosed 78 weeks, study length 105 weeks): 6.28 mg/kg/day
- TD50 (rat, strain Fischer 344, males, in feed, site: stomach, lesion: squamous-cell carcinoma, dosed 78 weeks, study length 105 weeks): 6.94 mg/kg/day
- TD50 (rat, strain Fischer 344, males, in feed, site: subcutaneous tissue, lesion: fibroma, dosed 78 weeks, study length 105 weeks): 10.5 mg/kg/day

Structure (SMILES): CC#N
- carcinogen call (mouse, strain B6C3F1, females, inhaled, site: any site (literature study), lesion: several types, types named in the paper, dosed 103 weeks, study length 105 weeks): negative (inactive)
- carcinogen call (mouse, strain B6C3F1, males, inhaled, site: any site (literature study), lesion: several types, types named in the paper, dosed 103 weeks, study length 104 weeks): negative (inactive)
- TD50 (mouse, strain B6C3F1, males, inhaled, site: liver, lesion: hepatocellular adenoma + hepatoblastoma + hepatocellular carcinoma, dosed 103 weeks, study length 104 weeks): 90.4 mg/kg/day
- TD50 (mouse, strain B6C3F1, males, inhaled, site: lung, lesion: alveolar/bronchiolar adenoma + alveolar/bronchiolar carcinoma, dosed 103 weeks, study length 104 weeks): 318 mg/kg/day
- TD50 (rat, strain Fischer 344, females, inhaled, site: mammary gland, lesion: carcinoma + fibroadenoma, dosed 103 weeks, study length 104 weeks): 11.5 mg/kg/day (inactive)
- TD50 (rat, strain Fischer 344, males, inhaled, site: adrenal medulla, lesion: pheochromocytoma benign, bilateral + pheochromocytoma, benign, dosed 103 weeks, study length 104 weeks): 16.9 mg/kg/day
- TD50 (rat, strain Fischer 344, males, inhaled, site: adrenal medulla, lesion: pheochromocytoma benign, bilateral + pheochromocytoma, malignant + pheochromocytoma, benign, dosed 103 weeks, study length 104 weeks): 14.8 mg/kg/day
- TD50 (rat, strain Fischer 344, males, inhaled, site: liver, lesion: hepatocellular adenoma + hepatoblastoma + hepatocellular carcinoma, dosed 103 weeks, study length 104 weeks): 168 mg/kg/day
- TD50 (rat, strain Fischer 344, males, inhaled, site: liver, lesion: hepatocellular adenoma + hepatocellular carcinoma, dosed 103 weeks, study length 104 weeks): 168 mg/kg/day
- TD50 (rat, strain Fischer 344, males, inhaled, site: liver, lesion: hepatocellular adenoma, dosed 103 weeks, study length 104 weeks): 156 mg/kg/day
- TD50 (rat, strain Fischer 344, males, inhaled, site: liver, lesion: hepatocellular carcinoma, dosed 103 weeks, study length 104 weeks): 398 mg/kg/day
- TD50 (rat, strain Fischer 344, males, inhaled, site: skin, lesion: basal-cell adenoma + keratoacanthoma + trichoepithelioma, dosed 103 weeks, study length 104 weeks): 81.6 mg/kg/day
- TD50 (rat, strain Fischer 344, males, inhaled, site: skin, lesion: keratoacanthoma, dosed 103 weeks, study length 104 weeks): 127 mg/kg/day
